# Experimental data published in patent EP0714912B1, “GMP-140 ligand” (THE BOARD OF REGENTS OF THE UNIVERSITY OF OKLAHOMA, priority 1990, dated 1992).
# Target: T1, immobilized GMP-140 (Homo sapiens, UniProt P16109)
# T1 construct: from tissue; host or cells: outdated human platelet packs
# T1 sequence (P16109 42-830): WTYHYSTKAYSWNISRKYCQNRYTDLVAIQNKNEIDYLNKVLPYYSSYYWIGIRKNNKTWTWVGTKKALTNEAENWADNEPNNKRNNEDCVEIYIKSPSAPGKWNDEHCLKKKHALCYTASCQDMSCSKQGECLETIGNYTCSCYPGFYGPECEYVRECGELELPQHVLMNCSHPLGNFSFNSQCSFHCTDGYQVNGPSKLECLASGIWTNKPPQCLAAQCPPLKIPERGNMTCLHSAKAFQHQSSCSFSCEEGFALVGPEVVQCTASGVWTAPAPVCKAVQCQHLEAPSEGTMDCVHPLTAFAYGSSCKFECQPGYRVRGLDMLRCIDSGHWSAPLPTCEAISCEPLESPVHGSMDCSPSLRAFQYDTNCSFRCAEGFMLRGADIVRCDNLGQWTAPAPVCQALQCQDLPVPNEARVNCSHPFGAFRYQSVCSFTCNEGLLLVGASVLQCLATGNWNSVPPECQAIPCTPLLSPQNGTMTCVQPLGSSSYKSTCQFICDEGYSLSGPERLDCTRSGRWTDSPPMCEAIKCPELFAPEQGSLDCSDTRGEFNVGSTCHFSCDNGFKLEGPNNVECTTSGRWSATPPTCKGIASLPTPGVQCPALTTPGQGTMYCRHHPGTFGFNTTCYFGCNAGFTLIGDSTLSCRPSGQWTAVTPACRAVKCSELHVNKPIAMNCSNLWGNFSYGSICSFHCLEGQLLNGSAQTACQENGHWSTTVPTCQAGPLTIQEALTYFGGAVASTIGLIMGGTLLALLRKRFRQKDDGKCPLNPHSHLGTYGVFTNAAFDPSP
# Test: Neutrophil adhesion to purified GMP-140 immobilized on plastic wells (myeloperoxidase read-out)
# Assay type: cell-based
# Conditions: concentrations up to 300 µM
# Source text: Peptides were screened for their ability to inhibit neutrophil adhesion to purified GMP-140 immobilized on plastic wells, using the assay described by Geng, et al., Nature 343, 757-760 (1990).
# Human neutrophils are isolated from heparinized whole blood by density gradient centrifugation on Mono-Poly resolving media, Flow Laboratories. Neutrophil suspensions are greater than 98% pure and greater than 95% viable by trypan blue exclusion. For adhesion assays, neutrophils are suspended at a concentration of 2 x 10^6 cells/ml in Hanks' balanced salt solution containing 1.26 mM Ca^2+ and 0.81 mM Mg^2+ (HBSS, Gibco) with 5 mg/ml human serum albumin (HBSS/HSA). Adhesion assays are conducted in triplicate in 96-well microtiter plates, Corning, incubated at 4°C overnight with 50 microliters of various protein solutions.
# GMP-140 is plated at 5 micrograms/ml and the control proteins: human serum albumin (Alb), platelet glycoprotein IIb/IIIa (IIb), von Willebrand factor (vWF), fibrinogen (FIB), thrombomodulin (TM), gelatin (GEL) or human serum (HS), are added at 50 micrograms/ml. All wells are blocked for 2 h at 22°C with 300 microliters HBSS containing 10 mg/ml HSA, then washed three times with HBSS containing 0.1% Tween-20 and once with HBSS. […] Inhibition is read as a lower percent adhesion, so that a value of 5% means that 95% of the specific adhesion was inhibited. […]
compound,measurement,value
CC(=O)N[C@H]1[C@H](O[C@H]2[C@@H](O)[C@@H](CO)O[C@@H](O[C@H]3[C@H](O)[C@@H](O)C(O)O[C@@H]3CO)[C@@H]2O)O[C@H](CO)[C@@H](O[C@@H]2O[C@H](CO)[C@H](O)[C@H](O)[C@H]2O)[C@@H]1O[C@@H]1O[C@@H](C)[C@@H](O)[C@@H](O)[C@@H]1O (stereo partly shown) [LNFIII],"effect on binding of neutrophils to purified, immobilized GMP-140",absolutely no effect
